Results taken from patent USRE37781E1, “Substituted cyclic carbonyls and derivatives thereof useful as retroviral protease inhibitors” (DuPont Pharmaceuticals Company, priority 1991, dated 2002).
pKi: −log10 of the molar value. Like-named read-outs stand apart in the source and are kept apart here.

Target: T1, HIV protease (Human immunodeficiency virus type 1 group M subtype B, UniProt P04585)
T1 construct: plasmid containing HIV protease under the control of an inducible T7 promoter; made in house; host or cells: E. coli (inclusion bodies, T7 promoter)
Assay: biochemical
Set-up: species or system HIV-1
Description: HIV Protease Inhibition Assay—Spectroscopic Method
Inclusion bodies were solubilized in 8M urea, 50 mM tris pH 8.0. Protease activity was recovered by dilution 20-fold into buffer containing 50 mM sodium acetate pH 5.5, 1 mM EDTA, 10% glycerol and 5% ethylene glycol. Enzyme was used at a final concentration of 1.0-10 ug/ml.
Stock solutions of 10 mM were prepared in DMSO.
All further dilutions were done in DMSO.

| Compound | pKi (Table 1a, read-out: Ki) | other results |
| --- | --- | --- |
| CC(C)=CCN1C(=O)NC(Cc2ccccc2)C(O)C(O)C1Cc1ccccc1 (centres unmarked) [Example 1AE] | > 8.00 |  |
| O=C1N(Cc2ccncc2)C(Cc2ccccc2)C(O)C(O)C(Cc2ccccc2)N1Cc1ccncc1 (centres unmarked) [Example 1AI] | 6.00 to 8.00 |  |
| CC(C)CN1C(=O)N(CC(C)C)C(Cc2ccccc2)C(O)C(O)C1Cc1ccccc1 (centres unmarked) [Example 1AO] | 6.00 to 8.00 |  |
| O=C1N(Cc2ccccn2)C(Cc2ccccc2)C(O)C(O)C(Cc2ccccc2)N1Cc1ccccn1 (centres unmarked) [Example 1AR] |  | pKi (Ki): 6.00 to 8.00 |
| O=C1N(CCCc2ccccc2)C(Cc2ccccc2)C(O)C(O)C(Cc2ccccc2)N1CCCc1ccccc1 (centres unmarked) [Example 1AS] | 6.00 to 8.00 |  |
| C=CCN1C(=O)N(CC=C(C)C)C(Cc2ccccc2)C(O)C(O)C1Cc1ccccc1 (centres unmarked) [Example 1AT] | > 8.00 |  |
| O=C1N(CC=Cc2ccccc2)C(Cc2ccccc2)C(O)C(O)C(Cc2ccccc2)N1CC=Cc1ccccc1 (centres unmarked) [Example 1AU] | > 8.00 |  |
| C=CCN1C(=O)N(CC2CC2)C(Cc2ccccc2)C(O)C(O)C1Cc1ccccc1 (centres unmarked) [Example 1AW] | > 8.00 |  |
| CN1C(=O)N(Cc2ccccc2)C(Cc2ccccc2)C(O)C(O)C1Cc1ccccc1 (centres unmarked) [Example 1AY] | 6.00 to 8.00 |  |
| CC(C)=CCN1C(=O)N(C)C(Cc2ccccc2)C(O)C(O)C1Cc1ccccc1 (centres unmarked) [Example 1BD] | 6.00 to 8.00 |  |
| C=CCN1C(=O)N(CC=C)C(Cc2ccccc2)C(O)C(O)C1Cc1ccccc1 (centres unmarked) [Example 1D] | < 6.00 |  |
| O=C1NC(Cc2ccccc2)C(O)C(O)C(Cc2ccccc2)N1 (centres unmarked) [Example 1E] | < 6.00 |  |
| C=CCN1C(=O)N(CC=C)[C@H](Cc2ccccc2)[C@@H](O)[C@H](O)[C@H]1Cc1ccccc1 [Example 1G] |  | pKi (Ki, Table 1a): 6.00 to 8.00 |
| C=CCN1C(=O)N(CC=C)C(Cc2ccccc2)C(O)C(O)C1Cc1ccccc1 (centres unmarked) [Example 1H] | < 6.00 |  |
| O=C1N(Cc2ccccc2)C(Cc2ccccc2)C(O)C(O)C(Cc2ccccc2)N1Cc1ccccc1 (centres unmarked) [Example 1I] |  | pKi (Ki): < 6.00 |
| COCCOCCN1C(=O)N(CCOCCOC)C(Cc2ccccc2)C(O)C(O)C1Cc1ccccc1 (centres unmarked) [Example 1J] | < 6.00 |  |
| CC(C)=CCCC(C)=CCN1C(=O)N(CC=C(C)CCC=C(C)C)C(Cc2ccccc2)C(O)C(O)C1Cc1ccccc1 (centres unmarked) [Example 1K] | < 6.00 |  |
| CC(C)C(NCCN1C(=O)N(CCO)C(Cc2ccccc2)C(O)C(O)C1Cc1ccccc1)C(=O)OCc1ccccc1 (centres unmarked) [Example 1L] | < 6.00 |  |
| CC(C)CCCC(C)CCN1C(=O)N(CCC(C)CCCC(C)C)C(Cc2ccccc2)C(O)C(O)C1Cc1ccccc1 (centres unmarked) [Example 1N] | 6.00 to 8.00 |  |
| CC(C)CCCC(C)CCN1C(=O)NC(Cc2ccccc2)C(O)C(O)C1Cc1ccccc1 (centres unmarked) [Example 1Q] | 6.00 to 8.00 |  |
| COCCOCCOCCN1C(=O)NC(Cc2ccccc2)C(O)C(O)C1Cc1ccccc1 (centres unmarked) [Example 1R] | < 6.00 |  |
| CC(C)C(NCCN1C(=O)N(CCO)C(Cc2ccccc2)C(O)C(O)C1Cc1ccccc1)C(=O)OCc1ccccc1 (centres unmarked) [Example 1T] | 6.00 to 8.00 |  |
| CC(C)C(NCCN1C(=O)N(CCNC(C(=O)OCc2ccccc2)C(C)C)C(Cc2ccccc2)C(O)C(O)C1Cc1ccccc1)C(=O)OCc1ccccc1 (centres unmarked) [Example 1U] | < 6.00 |  |
| CCCN1C(=O)N(CCC)C(Cc2ccccc2)C(O)C(O)C1Cc1ccccc1 (centres unmarked) [Example 1V] |  | pKi (Ki): > 8.00 |
| CC(C)=CCN1C(=O)N(C)C(Cc2ccccc2)C(O)C(O)C1Cc1ccccc1 (centres unmarked) [Example 2D] |  | pKi (Table 2A, read-out: Ki): 6.00 to 8.00; pKi (second table headed Table 2A, read-out: Ki): 6.00 to 8.00 |
